# Where two headings read alike, the source gives them in different places.
# Key:
# S. stellulata AepX = assay: Microscale thermophoresis ligand binding of recombinant S. stellulata AepX; parameters: species or system Stappia stellulata; conditions: for Kd: read-out: Kd (μM) AepX Ss
# Experimental: Finally, we determined the substrate specificity of recombinant S. stellulata AepX towards 2AEP and other (alkyl)phosphonates using microscale thermophoresis[53],[54].
# Recombinant AepX was over-produced and purified to homogeneity using methods described in[53]. Binding affinity was determined by microscale thermophoresis using a Monolith NT.115 instrument (NanoTemper Technologies GmbT, Germany) following the protocols described in[53],[54]. A detailed protocol is outlined in the Supplementary Materials. […]
# pET21a::aepXSs was sequence verified by automated DNA sequencing (Eurofins, Germany) and introduced to E. coli BL21(DE3) for over-production of recombinant AepX with a C-terminal […]
# E. coli BL21(DE3) harbouring pET21a::aepXSs was grown in LB broth with 100 µg mL-1 ampicillin in a culture volume of 1 L contained within a 2 L baffled flask. […]
# The binding affinity of AepX for phosphonate ligands was determined using Microscale Thermophoresis (MST) with a Monolith NT.115 instrument (NanoTemper Technologies, Germany).
# AepX (100 nM) was labelled with 2nd Generation RED-tris-NTA dye (Nanotemper Technologies, Germany) in 20 mM HEPES pH 7.5 with 200 mM NaCl and 0.005% (v/v) Tween-20 (MST buffer) according to the manufacturer’s instructions. […] 4 µL of each protein-ligand mixture was loaded into Monolith NT.115 Premium Capillaries (Nanotemper Technologies, Germany) and thermophoresis was measured at 22 °C for 22 s with 60 % LED power and High MST power. Data from at least two independent titrations were combined and analysed using the MO.Affinity Analysis software version 2.3 (Nanotemper Technologies, Germany), using the early thermophoresis data at 1 – 2.5 seconds in the experiment for analysis. […]
# Figure S7. Binding affinities for selected phosphonates by the Stappia stellulata AepX substrate binding protein determined by microscale thermophoresis. […]
# [1] = test system: Alliiroseovarius crassostreae (DSM 16950); assay: Final growth yield on sole N or P source, DSM 16950; type: cell-based
# Experimental: (§1) All strains used in this work were axenic. Pseudomonas strains were maintained on Luria Bertani (LB) agar (1.5% w/v) medium at 30 °C. Stappia stellulata and the Roseobacter strains were maintained on Marine Broth agar (1.5% w/v) medium at 30 °C. […] For all growth and proteomics experiments cultures were grown in an adapted minimal A medium[44] using Na-Succinate (20 mM) as the sole carbon source and, where applicable, 10 mM NH4Cl was added as the sole N source. 2AEP and KH2PO4 were added to a final concentration of 100 µM or 1.5 mM as specified in the text and figure legends. Pseudomonas strains were pre-cultured in minimal medium A containing 100 µM Pi and 1.5 mM NH4Cl to ensure adequate growth while minimising the potential for carryover of residual nutrients into experimental cultures. Culture experiments were performed using a FLUOStar Omega 96-well plate reader using Sarstedt 96-well plates incubated at 30°C, shaking at 200 rpm. […] For all other growth and proteomics experiments these marine bacteria were grown in Sea Salts media, with Pi buffer replaced by HEPES buffer. The method used for quantifying extracellular Pi is detailed in the Supplementary Materials.
# (§2) Table S1 Final growth yields (mean OD540 ± standard deviation) of Stappia stellulata (DSM 5886), Alliiroseovarius crassostreae (DSM 16950), Alliiroseovarius sediminilitoris (DSM 29439), Thalassobius aestuarii (DSM 15283), and Shimia marina (DSM26895) on 2AEP as sole N or P source with corresponding negative and positive controls. All conditions were performed in triplicate.
# E. coli PhnD = conditions: read-out: Kd (μM) PhnD Ec, cited from earlier work
# [2] = test system: Alliiroseovarius sediminilitoris (DSM 29439); assay: Final growth yield on sole N or P source, DSM 29439; type: cell-based
# Experimental: as §1, §2
# [3] = test system: Thalassobius aestuarii (DSM 15283); assay: Final growth yield on sole N or P source, DSM 15283; type: cell-based
# Experimental: as §1, §2
# [4] = test system: Pseudomonas putida BIRD-1; assay: Growth of P. putida BIRD-1 on 2AEP; type: cell-based
# Experimental: All strains used in this work were axenic. Pseudomonas strains were maintained on Luria Bertani (LB) agar (1.5% w/v) medium at 30 °C. […] For all growth and proteomics experiments cultures were grown in an adapted minimal A medium[44] using Na-Succinate (20 mM) as the sole carbon source and, where applicable, 10 mM NH4Cl was added as the sole N source. 2AEP and KH2PO4 were added to a final concentration of 100 µM or 1.5 mM as specified in the text and figure legends. Pseudomonas strains were pre-cultured in minimal medium A containing 100 µM Pi and 1.5 mM NH4Cl to ensure adequate growth while minimising the potential for carryover of residual nutrients into experimental cultures. Culture experiments were performed using a FLUOStar Omega 96-well plate reader using Sarstedt 96-well plates incubated at 30°C, shaking at 200 rpm.
# Shimia marina (DSM26895) = assay: Final growth yield on sole N or P source, DSM 26895; type: cell-based
# Experimental: as §1, §2
# [5] = test system: Stappia stellulata (DSM 5886); assay: Final growth yield on sole N or P source, DSM 5886; type: cell-based
# Experimental: as §1, §2
Compound,Kd of AepX in words (S. stellulata AepX),Kd (S. stellulata AepX),"Final growth yield (mean OD540 ± standard deviation), sole N source [1]","Final growth yield (mean OD540 ± standard deviation), sole P source [1]",Kd (E. coli PhnD),"Final growth yield (mean OD540 ± standard deviation), sole N source [2]","Final growth yield (mean OD540 ± standard deviation), sole P source [2]","Final growth yield (mean OD540 ± standard deviation), sole N source [3]","Final growth yield (mean OD540 ± standard deviation), sole P source [3]","Growth on 2AEP as sole P, sole N or sole N and sole P source [4]","Final growth yield (mean OD540 ± standard deviation), sole N source (Shimia marina (DSM26895))","Final growth yield (mean OD540 ± standard deviation), sole P source (Shimia marina (DSM26895))","Final growth yield (mean OD540 ± standard deviation), sole N source [5]","Final growth yield (mean OD540 ± standard deviation), sole P source [5]","Kd (S. stellulata AepX; microscale thermophoresis, recombinant S. stellulata AepX, 22 °C)","Kd (E. coli PhnD; E. coli PhnD, previous studies)"
"NCCP(=O)(O)O [2-Aminoethylphosphonate, 2-aminoethylphosphonate]",nanomolar range,0.023 ± 0.004 µM,0.535±0.039 OD540,1.050±0.018 OD540,0.05 to 0.1 µM,0.239±0.008 OD540,0.748±0.019 OD540,0.487±0.020 OD540,0.869±0.094 OD540,capable of growth,0.347±0.004 OD540,0.827±0.013 OD540,0.816±0.080 OD540,0.980±0.005 OD540,,
NCP(=O)(O)O [Aminomethylphosphonate],,,,,,,,,,,,,,,4490 ± 808 µM,16.6 µM
ammonium [NH4],,,0.776±0.044 OD540,,,0.257±0.004 OD540,,,,,0.397±0.035 OD540,,0.680±0.016 OD540,,,
orthophosphate [Pi],,,,0.90±0.018 OD540,,,1.100±0.037 OD540,,1.003±0.030 OD540,,,1.045±0.020 OD540,,1.01±0.07 OD540,,

# Source: PMC8316502 (Nature Communications, 2021)
